From ChEMBL document CHEMBL1201862, “PubChem BioAssay data set” (2004)
Values belong to the molecule of their own block, whether it stands above or below them. The source made the active and inactive calls.

How the values were obtained:
Leucine aminopeptidase = target: T1, Leucine aminopeptidase (Plasmodium falciparum 3D7, UniProt Q8IL11); test: P. falciparum M17LAP inhibitors, primary screen, biochemical, fluorogenic H-Leu-NHMec substrate, 1536-well (AID 1619); type: functional
T1 sequence (Q8IL11 whole entry): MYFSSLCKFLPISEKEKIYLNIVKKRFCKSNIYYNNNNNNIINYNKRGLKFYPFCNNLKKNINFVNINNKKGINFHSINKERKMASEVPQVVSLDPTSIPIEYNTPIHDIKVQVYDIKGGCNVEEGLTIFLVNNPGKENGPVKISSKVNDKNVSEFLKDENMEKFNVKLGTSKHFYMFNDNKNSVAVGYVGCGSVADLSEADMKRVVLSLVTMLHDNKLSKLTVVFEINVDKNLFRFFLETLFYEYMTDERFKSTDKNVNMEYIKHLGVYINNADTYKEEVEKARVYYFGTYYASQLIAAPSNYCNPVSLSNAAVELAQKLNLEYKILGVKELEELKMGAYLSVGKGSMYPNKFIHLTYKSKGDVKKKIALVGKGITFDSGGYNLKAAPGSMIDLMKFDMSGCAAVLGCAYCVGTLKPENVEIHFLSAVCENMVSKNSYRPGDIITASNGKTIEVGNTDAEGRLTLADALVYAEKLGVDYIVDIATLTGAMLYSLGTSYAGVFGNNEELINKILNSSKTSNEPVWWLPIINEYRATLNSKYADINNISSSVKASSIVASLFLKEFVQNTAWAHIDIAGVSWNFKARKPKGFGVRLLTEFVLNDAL

[1] = target: G-protein coupled receptor 55 (Homo sapiens, UniProt Q9Y2T6); test: selective activators of receptor GPR55 – imaging, U2OS cells, beta-arrestin-GFP redistribution, primary screen (AID 1961); type: functional
Chain of G-protein coupled receptor 55 (Q9Y2T6 whole entry): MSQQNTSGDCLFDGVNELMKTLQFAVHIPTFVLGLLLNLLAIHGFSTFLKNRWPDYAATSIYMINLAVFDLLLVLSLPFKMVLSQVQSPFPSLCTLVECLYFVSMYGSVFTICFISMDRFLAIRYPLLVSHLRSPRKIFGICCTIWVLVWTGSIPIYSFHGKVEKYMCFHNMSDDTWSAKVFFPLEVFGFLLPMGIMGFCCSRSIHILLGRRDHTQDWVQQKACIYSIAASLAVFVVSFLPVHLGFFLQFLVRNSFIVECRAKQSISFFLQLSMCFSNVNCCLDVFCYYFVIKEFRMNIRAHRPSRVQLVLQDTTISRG

Aspartyl aminopeptidase = target: T2, Aspartyl aminopeptidase (Plasmodium falciparum 3D7, UniProt Q8I2J3); test: Counterscreen for inhibitors of M1 and M17 aminopeptidases: QFRET-based biochemical high throughput dose response assay for inhibitors of the Plasmodium falciparum M18 Aspartyl Aminopeptidase (PFM18AAP). [Related PubChem assays: 1619 (Screening assay (M17LAP inhibitors).), 1445 (Screening assay (M1AAP inhibitors).)]
T2 sequence (Q8I2J3 whole entry): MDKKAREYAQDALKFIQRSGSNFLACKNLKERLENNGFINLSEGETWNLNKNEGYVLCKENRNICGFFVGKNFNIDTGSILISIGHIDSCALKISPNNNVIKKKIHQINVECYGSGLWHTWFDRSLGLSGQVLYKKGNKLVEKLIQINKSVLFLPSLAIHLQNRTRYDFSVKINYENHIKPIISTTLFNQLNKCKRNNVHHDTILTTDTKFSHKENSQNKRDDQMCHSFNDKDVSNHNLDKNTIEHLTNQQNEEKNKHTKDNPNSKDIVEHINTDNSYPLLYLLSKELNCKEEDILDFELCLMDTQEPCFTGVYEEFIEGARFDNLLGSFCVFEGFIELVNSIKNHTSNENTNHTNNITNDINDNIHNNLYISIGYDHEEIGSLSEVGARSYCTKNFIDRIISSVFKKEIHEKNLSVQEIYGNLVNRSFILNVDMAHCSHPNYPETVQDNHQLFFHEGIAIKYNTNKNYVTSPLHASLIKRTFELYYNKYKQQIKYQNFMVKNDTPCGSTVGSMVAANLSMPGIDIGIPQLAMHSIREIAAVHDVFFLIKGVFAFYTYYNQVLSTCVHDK

Procathepsin L = Procathepsin L (Homo sapiens, UniProt P07711); test: CTSL1 protease inhibition – biochemical, QFRET, 1536-well, counter-screen for M1/M17 aminopeptidase inhibitor project, dose response (AID 2214)
Chain of Procathepsin L (P07711 whole entry): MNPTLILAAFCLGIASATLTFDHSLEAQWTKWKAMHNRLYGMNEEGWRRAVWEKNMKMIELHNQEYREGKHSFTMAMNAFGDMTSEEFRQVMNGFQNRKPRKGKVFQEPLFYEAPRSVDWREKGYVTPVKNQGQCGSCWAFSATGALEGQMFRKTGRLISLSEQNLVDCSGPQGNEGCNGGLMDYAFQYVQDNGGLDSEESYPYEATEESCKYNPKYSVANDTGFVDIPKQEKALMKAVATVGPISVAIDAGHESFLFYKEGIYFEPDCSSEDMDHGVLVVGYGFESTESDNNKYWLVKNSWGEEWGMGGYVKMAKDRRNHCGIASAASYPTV

Coagulation factor XII = target: T3, Coagulation factor XII (Homo sapiens, UniProt P00748); test: activated coagulation factor XII inhibitor potency, concentration-effect curve, cell-free (AID 716); type: functional
T3 sequence (P00748 whole entry): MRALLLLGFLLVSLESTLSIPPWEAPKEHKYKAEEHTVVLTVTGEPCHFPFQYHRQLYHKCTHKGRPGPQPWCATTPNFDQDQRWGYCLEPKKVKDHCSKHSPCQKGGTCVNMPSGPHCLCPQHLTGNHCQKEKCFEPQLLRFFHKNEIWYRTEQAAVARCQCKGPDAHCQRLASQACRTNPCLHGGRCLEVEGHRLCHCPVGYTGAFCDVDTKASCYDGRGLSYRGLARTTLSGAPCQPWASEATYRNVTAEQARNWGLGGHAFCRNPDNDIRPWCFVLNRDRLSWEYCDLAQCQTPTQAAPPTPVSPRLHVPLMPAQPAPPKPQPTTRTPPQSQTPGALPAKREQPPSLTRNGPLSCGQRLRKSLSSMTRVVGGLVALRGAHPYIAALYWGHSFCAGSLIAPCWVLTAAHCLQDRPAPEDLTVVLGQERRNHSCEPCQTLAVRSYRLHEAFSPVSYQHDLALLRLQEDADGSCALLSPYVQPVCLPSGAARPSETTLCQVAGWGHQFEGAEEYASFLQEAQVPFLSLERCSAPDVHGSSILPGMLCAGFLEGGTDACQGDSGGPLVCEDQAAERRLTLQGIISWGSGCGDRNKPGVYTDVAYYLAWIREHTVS

[2] = target: Glucose-6-phosphate 1-dehydrogenase (Homo sapiens, UniProt P11413); test: inhibition of Homo sapiens G6PD, dose series – biochemical, fluorescence, selectivity assay for P. falciparum G6PD inhibitor project, dose response (AID 504792); type: functional
Chain of Glucose-6-phosphate 1-dehydrogenase (P11413 whole entry, the tested form may be a part): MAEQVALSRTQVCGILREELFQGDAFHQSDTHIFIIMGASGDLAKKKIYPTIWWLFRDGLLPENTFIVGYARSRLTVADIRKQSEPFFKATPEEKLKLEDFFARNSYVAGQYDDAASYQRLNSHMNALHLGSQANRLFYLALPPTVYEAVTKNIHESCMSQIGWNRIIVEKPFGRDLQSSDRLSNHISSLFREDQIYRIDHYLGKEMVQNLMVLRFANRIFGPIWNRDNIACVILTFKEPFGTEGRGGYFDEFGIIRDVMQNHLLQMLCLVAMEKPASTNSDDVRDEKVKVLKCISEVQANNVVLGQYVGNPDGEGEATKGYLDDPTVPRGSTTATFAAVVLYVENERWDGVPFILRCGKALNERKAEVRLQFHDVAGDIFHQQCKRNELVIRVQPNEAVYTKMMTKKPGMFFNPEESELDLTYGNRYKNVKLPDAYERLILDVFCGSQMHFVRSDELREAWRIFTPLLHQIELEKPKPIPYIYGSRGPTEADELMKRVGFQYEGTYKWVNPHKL

[3] = target: T4, Polyadenylate-binding protein 1 (Homo sapiens, UniProt P11940); test: MLLE domain peptide-binding blockers, IC50 – biochemical, fluorescence polarization, FITC-PAM2 peptide, dose response (AID 602259); type: functional; conditions: read-out: IC50_Mean
T4 sequence (P11940 whole entry, the tested form may be a part): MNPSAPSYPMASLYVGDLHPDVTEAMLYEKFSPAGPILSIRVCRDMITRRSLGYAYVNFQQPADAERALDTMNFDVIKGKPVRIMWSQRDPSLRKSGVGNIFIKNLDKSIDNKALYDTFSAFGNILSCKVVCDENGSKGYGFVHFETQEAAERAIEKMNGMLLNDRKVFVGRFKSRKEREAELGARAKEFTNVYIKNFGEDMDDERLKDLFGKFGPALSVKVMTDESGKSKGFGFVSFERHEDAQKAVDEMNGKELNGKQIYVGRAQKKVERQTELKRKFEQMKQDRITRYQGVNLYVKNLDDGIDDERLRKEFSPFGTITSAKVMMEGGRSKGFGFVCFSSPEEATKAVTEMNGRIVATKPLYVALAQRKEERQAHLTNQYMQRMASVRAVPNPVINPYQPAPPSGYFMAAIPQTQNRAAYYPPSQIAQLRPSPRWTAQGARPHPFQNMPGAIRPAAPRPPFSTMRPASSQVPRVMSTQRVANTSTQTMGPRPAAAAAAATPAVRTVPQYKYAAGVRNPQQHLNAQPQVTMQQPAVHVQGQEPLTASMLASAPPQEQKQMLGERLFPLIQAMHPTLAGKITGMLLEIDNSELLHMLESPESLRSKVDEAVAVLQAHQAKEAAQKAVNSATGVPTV

Hexokinase = Hexokinase (Trypanosoma brucei, UniProt Q38C41); test: Confirmation assay for inhibitors of Trypanosoma brucei hexokinase 1-Analogue-first series. [Related pubchem assays (depositor defined):AID1430, AID1632, AID2516, AID2560, AID2579, AID2600, AID449725, AID492951]; type: functional
Chain of Hexokinase (Q38C41 whole entry): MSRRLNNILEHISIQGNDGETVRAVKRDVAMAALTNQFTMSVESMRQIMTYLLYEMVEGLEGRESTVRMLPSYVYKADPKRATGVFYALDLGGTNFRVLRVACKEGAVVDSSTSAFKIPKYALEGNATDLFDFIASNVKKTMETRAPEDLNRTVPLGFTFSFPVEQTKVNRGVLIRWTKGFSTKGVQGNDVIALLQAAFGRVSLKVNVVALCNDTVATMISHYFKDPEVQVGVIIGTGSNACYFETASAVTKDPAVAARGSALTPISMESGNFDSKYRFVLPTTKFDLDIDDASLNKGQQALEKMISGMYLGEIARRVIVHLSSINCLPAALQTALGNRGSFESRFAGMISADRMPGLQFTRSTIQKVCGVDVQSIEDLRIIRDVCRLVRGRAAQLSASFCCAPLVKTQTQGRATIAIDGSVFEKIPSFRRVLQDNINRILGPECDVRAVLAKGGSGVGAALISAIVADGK

[4] = target: T4, Polyadenylate-binding protein 1; test: MLLE binding blockers, Cy5 peptide tracer – biochemical, fluorescence polarization, Cy5-PAM2 peptide, secondary, miRNA deadenylation inhibitor project, dose response (AID 602260); type: functional; conditions: read-out: IC50_Mean

- IC50 (Leucine aminopeptidase): < 1 µM (active)
- EC50 [1]: 30.3 µM (inactive)
- IC50 (Aspartyl aminopeptidase): > 73.5 µM (not active)
- IC50 (Procathepsin L): > 59.6 µM (not active)
Structure (SMILES): O=C(CSc1nnc(Nc2ccccc2)s1)NN1C(=O)NC2(CCCCC2)C1=O

- IC50 (Coagulation factor XII): 3.76 µM (active)
Structure (SMILES): COc1ccc2c(c1)CCc1c(C(=O)NCc3cccnc3)noc1-2

Structure (SMILES): N#Cc1ccc2c(=O)n(-c3ccccc3)sc2c1
- IC50 [2]: 7.11 µM (active)
- IC50 [3]: > 66 µM (inactive)
- IC50 (Hexokinase): 6.66 µM (active)
- IC50 [4]: > 66 µM (inactive)
